Patent US20230293517A1, “ANTAGONIST COMPOUNDS” (AdoRx Therapeutics Limited, priority 2020, published 2023)

Key:
[1] = biological target: human Adenosine A3 receptor (Homo sapiens (Human), UniProt P0DMS8); assay: Adenosine receptor TR-FRET binding assay (A3); conditions: inhibition of binding of 100 nM CA200645, CHO cell membranes
Outline: (§1)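 Ki values come from Cheng–Prusoff conversion of IC50s for displacement of fluorescent antagonist CA200645 from terbium-labelled human adenosine receptors in CHO membranes. Tracer was 30 nM at A2b and 100 nM at the other three subtypes; incubation lasted 2 h at room temperature.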

[2] = biological target: human Adenosine A2b receptor (Homo sapiens (Human), UniProt P29275); assay: Adenosine receptor TR-FRET binding assay (A2b); conditions: TR-FRET, inhibition of binding of 30 nM CA200645, CHO cell membranes
Chain of human Adenosine A2b receptor (P29275 whole entry): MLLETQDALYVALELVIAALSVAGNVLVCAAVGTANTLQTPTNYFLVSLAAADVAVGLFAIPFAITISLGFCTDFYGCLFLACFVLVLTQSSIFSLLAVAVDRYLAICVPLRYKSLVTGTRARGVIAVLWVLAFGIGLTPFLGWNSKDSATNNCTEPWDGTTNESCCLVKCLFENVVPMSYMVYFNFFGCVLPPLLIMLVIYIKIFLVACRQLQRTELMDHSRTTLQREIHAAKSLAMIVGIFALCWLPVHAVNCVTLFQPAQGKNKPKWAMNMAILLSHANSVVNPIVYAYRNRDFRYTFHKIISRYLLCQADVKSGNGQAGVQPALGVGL
Outline: as §1

[3] = biological target: human Adenosine A2a receptor (Homo sapiens (Human), UniProt P29274); assay: Adenosine receptor TR-FRET binding assay (A2a); conditions: inhibition of binding of 100 nM CA200645, CHO cell membranes
Chain of human Adenosine A2a receptor (P29274 whole entry): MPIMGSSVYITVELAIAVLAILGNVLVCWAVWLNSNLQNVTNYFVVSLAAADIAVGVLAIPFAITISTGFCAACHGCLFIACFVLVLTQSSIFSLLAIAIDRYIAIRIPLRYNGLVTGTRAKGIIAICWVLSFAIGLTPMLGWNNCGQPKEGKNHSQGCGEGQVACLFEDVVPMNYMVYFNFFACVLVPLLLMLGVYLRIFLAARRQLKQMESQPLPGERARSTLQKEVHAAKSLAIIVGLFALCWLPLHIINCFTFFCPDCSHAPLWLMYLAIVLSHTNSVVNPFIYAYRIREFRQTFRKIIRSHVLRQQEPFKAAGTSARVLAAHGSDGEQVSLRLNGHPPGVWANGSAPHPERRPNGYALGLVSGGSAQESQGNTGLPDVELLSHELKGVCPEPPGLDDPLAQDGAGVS
Outline: as §1

[4] = system: immature monocyte-derived dendritic cells (MoDC); assay: MoDC pCREB assay; format: cell-based, human; conditions: Homo sapiens, Dendritic cell; pCREB in immature MoDC, 1 μM NECA, rolipram
Experimental: Monocytes are isolated from human whole blood using CD14 microbeads (Miltenyi Biotec 130-050-201) and differentiated to immature monocyte-derived dendritic cells (MoDC) by culture for 5 days in Mo-DC Differentiation Medium (Miltenyi Biotec 130-094-812). MoDCs are seeded into fresh medium into U bottomed 96 well culture plates and pre-incubated at 37° C. with serial dilutions of A2A/B antagonists for 15 min. At the same time the cells are co-incubated with the phosphodiesterase inhibitor rolipram (final concentration of 20 µM) to amplify the subsequent pCREB response. Adenosine receptor agonist NECA is then added at 1 μM final concentration, leading to an increase in CREB phosphorylation. Following a 45 min incubation at 37° C., the cells are fixed, permeabilized and stained with directly conjugated fluorescent antibodies to phospho-CREB (Alexa Fluor 488), CD209 (PerCP-Cy5.5) and CD86 (APC). Samples are analysed by FACS to measure fluorescence in corresponding channels, and also forward and Side scatter. The population of CD209+/CD86− low cells corresponding to immature dendritic cells is gated for analysis of pCREB levels.
Approximately 5% of the analysed cells are positive for detection of pCREB in the absence of agonist stimulation, representing the background signalling of all pathways upstream of CREB. Following NECA stimulation this is increased to ˜80% pCREB+ve, and this increase is essentially fully reversible by A2B or dual A2A/B antagonists.
IC50 is represented as the point of inflection of a sigmoidal curve

[5] = biological target: human Adenosine A1 receptor (Homo sapiens (Human), UniProt P30542); assay: Adenosine receptor TR-FRET binding assay (A1); conditions: inhibition of binding of 100 nM CA200645, CHO cell membranes
Chain of human Adenosine A1 receptor (P30542 whole entry): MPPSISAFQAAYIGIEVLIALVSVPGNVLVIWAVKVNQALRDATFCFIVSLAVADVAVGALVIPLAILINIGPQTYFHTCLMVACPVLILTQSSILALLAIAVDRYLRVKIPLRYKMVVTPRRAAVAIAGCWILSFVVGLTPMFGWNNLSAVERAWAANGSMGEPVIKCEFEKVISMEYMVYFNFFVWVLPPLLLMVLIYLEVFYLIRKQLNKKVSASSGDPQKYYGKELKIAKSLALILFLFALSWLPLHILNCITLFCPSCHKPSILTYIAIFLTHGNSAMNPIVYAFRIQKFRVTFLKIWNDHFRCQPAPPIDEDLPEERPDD
Outline: as §1

[6] = system: CD8+T cells in human whole blood; assay: Measurement of pCREB in CD8+T cells in human whole blood; format: cell-based; conditions: 3 μM NECA, rolipram
Outline: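 Heparinised human whole blood pre-incubated 20 min at 37 °C with serially diluted A2a antagonists plus rolipram, then stimulated 60 min with 3 μM NECA (final). After fixation and red-cell lysis, white cells were permeabilized and stained for phospho-CREB and CD8; pCREB in CD8+ T cells measured by flow cytometry.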

human PBMCs = assay: CD3/CD28 stimulated IL-2 release NECA reversal assay in human PBMCs; format: cell-based; conditions: PBMC, 1 uM NECA, 24 hours, IL-2 in culture supernatant
Outline: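 PBMCs from citrated healthy-donor blood plated at 50,000 cells/well on 1 ug/ml CD3 antibody with 1 ug/ml CD28 antibody, 1 uM NECA and 0.003-10 μM antagonist (final), 24 h at 37° C. Supernatant IL-2 measured by MSD immunoassay; % inhibition set against no-NECA control wells as 100%.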

Chain of human Adenosine A3 receptor (P0DMS8 whole entry): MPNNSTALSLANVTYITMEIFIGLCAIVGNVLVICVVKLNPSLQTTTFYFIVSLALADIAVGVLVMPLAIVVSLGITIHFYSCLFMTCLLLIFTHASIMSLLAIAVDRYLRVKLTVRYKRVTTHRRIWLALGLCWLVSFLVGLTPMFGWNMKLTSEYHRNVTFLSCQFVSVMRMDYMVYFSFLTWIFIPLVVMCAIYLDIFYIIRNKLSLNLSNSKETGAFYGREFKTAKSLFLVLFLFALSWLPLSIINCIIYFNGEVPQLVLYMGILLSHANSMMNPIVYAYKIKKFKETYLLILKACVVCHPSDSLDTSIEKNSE

Ki [1]	Ki [2]	Ki [3]	IC50 [4]	Ki [5]	IC50 [6]	Structure (SMILES)	IC50 (human PBMCs)
0.166 µM	0.0009 µM	0.00128 µM	0.028 µM	0.024 µM	–	Cc1cc(-c2sc(NC(=O)N3CCC(S(N)(=O)=O)C3)nc2-c2cccc(C#N)c2)cc(C)n1 (stereo not shown) [Example 6.2, N-[4-(3-Cyanophenyl)-5-(2,6-dimethyl-4-pyridyl)thiazol-2-yl]-3-sulfamoyl-pyrrolidine-1-carboxamide]	–
0.184 µM	0.0022 µM	0.00147 µM	–	0.128 µM	0.1 µM	Cc1cc(-c2sc(NC(=O)N3CC4(CCNC4=O)C3)nc2-c2cccc(C#N)c2)cc(C)n1 [Example 6.59, N-[4-(3-Cyanophenyl)-5-(2,6-dimethyl-4-pyridyl)thiazol-2-yl]-5-oxo-2,6-diazaspiro[3.4]octane-2-carboxamide]	0.0059 µM
0.057 µM	0.0032 µM	0.00152 µM	–	0.112 µM	0.35 µM	Cc1cc(-c2sc(NC(=O)N3CCN(C4COC4)CC3)nc2-c2cccc(C#N)c2)cc(C(F)(F)F)n1 [Example 6.61, N-[4-(3-Cyanophenyl)-5-[2-methyl-6-(trifluoromethyl)-4-pyridyl]thiazol-2-yl]-4-(oxetan-3-yl)piperazine-1-carboxamide]	0.0172 µM
0.235 µM	0.0014 µM	0.00014 µM	–	0.027 µM	0.01 µM	Cc1cc(-c2sc(NC(=O)N3CC(C#N)(CO)C3)nc2-c2cccc(C#N)c2)cc(C)n1 [Example 6.64, 3-Cyano-N-[4-(3-cyanophenyl)-5-(2,6-dimethyl-4-pyridyl)thiazol-2-yl]-3-(hydroxymethyl)azetidine-1-carboxamide]	0.0011 µM
0.361 µM	0.0048 µM	0.00081 µM	–	0.099 µM	0.18 µM	Cc1cc(-c2sc(NC(=O)N3CCN[C@H](C(C)(C)O)C3)nc2-c2cccc(C#N)c2)cc(C)n1 [Example 6.75, (3S)-N-[4-(3-Cyanophenyl)-5-(2,6-dimethyl-4-pyridyl)thiazol-2-yl]-3-(1-hydroxy-1-methyl-ethyl)piperazine-1-carboxamide]	0.0059 µM
0.385 µM	0.008 µM	0.0019 µM	–	0.065 µM	0.48 µM	Cc1cc(-c2sc(NC(=O)N3CCOC[C@H]3CO)nc2-c2cccc(C#N)c2)cc(C)n1 [Example 6.88, (3R)-N-[4-(3-Cyanophenyl)-5-(2,6-dimethyl-4-pyridyl)thiazol-2-yl]-3-(hydroxymethyl)morpholine-4-carboxamide]	0.0078 µM
0.719 µM	0.0113 µM	0.00563 µM	–	0.407 µM	0.19 µM	Cc1cc(-c2sc(NC(=O)N3CCC4(CCC(=O)N4C)CC3)nc2-c2cccc(C#N)c2)cc(C)n1 [Example 6.94, N-[4-(3-Cyanophenyl)-5-(2,6-dimethyl-4-pyridyl)thiazol-2-yl]-1-methyl-2-oxo-1,8-diazaspiro[4.5]decane-8-carboxamide]	0.0105 µM
0.549 µM	0.0006 µM	0.00016 µM	0.01 µM	0.025 µM	–	Cc1cc(-c2sc(NC(=O)N3CC4(COC4)C3)nc2-c2cccc(C#N)c2)cc(Cl)n1 [Example 6.100, N-[5-(2-Chloro-6-methyl-4-pyridyl)-4-(3-cyanophenyl)thiazol-2-yl]-2-oxa-6-azaspiro[3.3]heptane-6-carboxamide]	–
0.564 µM	0.001 µM	0.0002 µM	0.012 µM	0.031 µM	–	[2H]C([2H])([2H])c1cc(-c2sc(NC(=O)N3CC4(COC4)C3)nc2-c2cccc(C#N)c2)cc(C([2H])([2H])[2H])n1 [Example 6.104, N-[5-[2,6-Bis(trideuteriomethyl)-4-pyridyl]-4-(3-cyanophenyl)thiazol-2-yl]-2-oxa-6-azaspiro[3.3]heptane-6-carboxamide]	–
0.368 µM	0.0013 µM	0.00127 µM	0.004 µM	0.071 µM	–	Cc1cc(-c2sc(NC(=O)N3CC4(COC4)C3)nc2-c2cccc(C#N)c2)c(F)c(C)n1 [Example 6.105, N-[4-(3-Cyanophenyl)-5-(3-fluoro-2,6-dimethyl-4-pyridyl)thiazol-2-yl]-2-oxa-6-azaspiro[3.3]heptane-6-carboxamide]	–
0.145 µM	0.0009 µM	0.00059 µM	0.062 µM	0.034 µM	–	Cc1cc(-c2sc(NC(=O)N3CCC4(CNCCO4)C3)nc2-c2cccc(C#N)c2)cc(C(F)F)n1 (stereo not shown) [Example 6.108, N-[4-(3-Cyanophenyl)-5-[2-(difluoromethyl)-6-methyl-4-pyridyl]thiazol-2-yl]-6-oxa-2,9-diazaspiro[4.5]decane-2-carboxamide]	–
0.304 µM	0.0111 µM	0.00281 µM	–	0.042 µM	0.58 µM	Cc1cc(-c2sc(NC(=O)N3CCNCC3)nc2-c2cccc(C#N)c2)cc(C)n1 [Example 7, N-[4-(3-Cyanophenyl)-5-(2,6-dimethyl-4-pyridyl)thiazol-2-yl]piperazine-1-carboxamide]	0.016 µM
0.418 µM	0.0076 µM	0.00099 µM	–	0.047 µM	0.65 µM	Cc1cc(-c2sc(NC(=O)N3CCN[C@H](C)C3)nc2-c2cccc(C#N)c2)cc(C)n1 [Example 7.1, (3R)—N-[4-(3-Cyanophenyl)-5-(2,6-dimethyl-4-pyridyl)thiazol-2-yl]-3-methyl-piperazine-1-carboxamide]	0.0205 µM
0.772 µM	0.0053 µM	0.00079 µM	–	0.102 µM	0.02 µM	Cc1cc(-c2sc(NC(=O)N3CC[C@@H](C(C)(C)O)C3)nc2-c2cccc(C#N)c2)cc(CO)n1 [Example 9.2]	0.0027 µM
0.742 µM	0.0032 µM	0.00042 µM	–	0.068 µM	0.01 µM	Cc1cc(-c2sc(NC(=O)N3CCC(C#N)(CO)CC3)nc2-c2cccc(C#N)c2)cc(CO)n1 [Example 9.7]	0.001 µM
0.491 µM	0.0031 µM	0.00031 µM	–	0.048 µM	0.02 µM	COC1(C#N)CCN(C(=O)Nc2nc(-c3cccc(C#N)c3)c(-c3cc(C)nc(CO)c3)s2)CC1 [Example 9.9]	0.0013 µM
0.283 µM	0.0014 µM	0.00119 µM	–	0.043 µM	1.06 µM	Cc1cc(-c2sc(NC(=O)N3CC[S+]([O-])CC3)nc2-c2cccc(C#N)c2)c(F)c(C)n1 [Example 10, N-[4-(3-Cyanophenyl)-5-(3-fluoro-2,6-dimethyl-4-pyridyl)thiazol-2-yl]-1-oxo-1,4-thiazinane-4-carboxamide]	0.0247 µM
0.515 µM	0.0013 µM	0.00062 µM	–	0.051 µM	1.13 µM	Cc1cc(-c2sc(NC(=O)N3CCS(=O)(=NC#N)CC3)nc2-c2cccc(C#N)c2)cc(C)n1 [Example 11, 1-Cyanoimino-N-[4-(3-cyanophenyl)-5-(2,6-dimethyl-4-pyridyl)thiazol-2-yl]-1-oxo-1,4-thiazinane-4-carboxamide]	0.0105 µM
0.257 µM	0.0022 µM	0.00029 µM	–	0.022 µM	0.12 µM	Cc1cc(-c2sc(NC(=O)N3CCS(=N)(=O)CC3)nc2-c2cccc(C#N)c2)cc(C(F)F)n1 [Example 16.1]	0.0067 µM
0.852 µM	0.0034 µM	0.00039 µM	–	0.248 µM	0.41 µM	Cc1cc(-c2sc(NC(=O)N3CCC(C)(C#N)CC3)nc2-c2cccc(C#N)c2C)cc(C)n1 [Example 18, 4-Cyano-N-[4-(3-cyano-2-methyl-phenyl)-5-(2,6-dimethyl-4-pyridyl)thiazol-2-yl]-4-methyl-piperidine-1-carboxamide]	0.0072 µM
